Source: ChEMBL document CHEMBL1152743, “Design and synthesis of 1,2-annulated adamantane piperidines with anti-influenza virus activity” (Bioorg Med Chem, 2009)
Activity calls are given as the source filed them. The rule behind the calls is not given here.

Assays:
Influenza B virus = assay: Antiviral activity against influenza B virus; type: functional, organism-based
Influenza A virus [1] = assay: microbe, parasite or virus in culture; details: H3N2, 72 h
Description: (§1) Antiviral activity against influenza A virus H3N2 assessed as inhibition of virus-induced cytopathic effect after 72 hrs by MTS assay

[2] = Selectivity index, ratio of MCC for MDCK cells to EC50 for influenza A virus H3N2; type: toxicity, cell-based; details: dog
[3] = Cytotoxicity against MDCK cells assessed as changes in cell morphology after 72 hrs […]; type: cell-based, Canis lupus familiaris; details: dog
Influenza A virus [4] = type: functional, organism-based; details: H3N2, 500 uM
Influenza A virus [5] = tested on: Influenza A virus
Description: as §1

Row | Compound | Activity (Influenza B virus) | EC50 (Influenza A virus [1]) [nM] | selectivity ratio [2] | MCC at 72 h [3] [µM] | Activity (Influenza A virus [4]) | EC50 (Influenza A virus [5]) [nM]
1 | NC12CC3CC(CC(C3)C1)C2 [AMANTADINE] | inactive | 2000 | > 250 | > 500 | – | –
2 | CN1CC2C3CC4CC(C3)CC2(C4)C1 (stereo not given) | inactive | 2400 | 35 | 83 | – | –
3 | C1C2CC3CC1CC1(CNCC31)C2 (stereo not given) | inactive | 500 | 200 | 94 | – | –
4 | C1CC2C3CC4CC(C3)CC2(CN1)C4 (stereo not given) | inactive | 600 | > 732 | 439 | – | –
5 | CN1CCC2C3CC4CC(C3)CC2(C4)C1 (stereo not given) | inactive | – | – | – | inactive | –
6 | CN1CCC23CC4CC(CC(C4)C12)C3 (stereo not given) | inactive | 7700 | 11 | 83 | – | –
7 | CC(N)C12CC3CC(CC(C3)C1)C2 (stereo not given) [RIMANTADINE] | inactive | 360 | – | > 500 | – | –
8 | C1CC23CC4CC(CC(C4)C2N1)C3 (stereo not given) | inactive | 2200 | 217 | 468 | – | –
9 | CN1CCC23CC4CC(CC(C4)C2C1)C3 (stereo not given) | inactive | – | – | – | inactive | –
10 | CCN1CCC23CC4CC(CC(C4)C2C1)C3 (stereo not given) | inactive | – | – | – | inactive | –
11 | C1CNC2C3CC4CC(C3)CC2(C1)C4 (stereo not given) | inactive | 4100 | 106 | 439 | – | –
12 | C1CC23CC4CC(CC(C4)C2CN1)C3 (stereo not given) | inactive | – | – | – | inactive | –
13 | CN1CCCC23CC4CC(CC(C4)C12)C3 (stereo not given) | inactive | 4400 | 19 | 83 | – | –
14 | NC(=O)c1ncn([C@@H]2O[C@H](CO)[C@@H](O)[C@H]2O)n1 [RIBAVIRIN] | inactive | – | – | 20 | – | 8700
15 | CCN1CCC23CC4CC(CC(C4)C12)C3 (stereo not given) | inactive | 3400 | 128 | 439 | – | –
